Assay [1] has as its system A549 cells. Kind of assay: DNA fragmentation by APO-BrdU TUNEL assay. The assay is classed as cell-based, human. As for the experimental part: DNA strand breaks in apoptotic cells caused by the activation of endonucleases, were detected by APO-BrdU TUNEL assay kit. After incubation with various concentrations of chalepin at 48 and 72 h, cells were harvested and washed with PBS. Next, the cells were fixed with 1 % (w/v) paraformaldehyde for 15 mins, then washed with PBS, and fixed with 70 % (v/v) ethanol overnight. Ethanol was removed by centrifugation and DNA labeling steps were performed according to the manual provided in the kit. Samples were analyzed by flow cytometer and a minimum of 10,000 events were acquired for each replicate.

Assay [2] relates to A549 cells. Briefly: Western blot analysis of apoptotic proteins. The assay is classed as cell-based, human.
[3] abbreviates: A549, 36 μg/ml, 2,4,8,12 and 24 h.

Regarding `C=CC(C)(C)c1cc2cc3c(cc2oc1=O)O[C@H](C(C)(C)O)C3` [Chalepin, chalepin], the “DNA fragmentation, R3 (TUNEL positive cells)” value (shortened to “DNA fragmentation, R3”) with A549 cells [1] (A549, 48 h, 45 μg/ml) turned out to be 38.5 ± 0.70%. Moreover, in the assay with A549 cells [1] (A549, 72 h, 36 μg/ml), the “DNA fragmentation, R3” value came out at 73.50 ± 0.20%. In addition, the “DNA fragmentation, R3” value with A549 cells [1] (A549, 72 h, 45 μg/ml) is 66.50 ± 0.29%. In addition, in the assay on A549 cells [2] (setting [3]), the “Procaspase 3” value is recorded as “downregulation”; the “Procaspase 9” value is on record as “downregulation”; the “anti-apoptotic gene products Bcl-2, survivin, XIAP, Bcl-xl and cFLIP” value is listed as “downregulate”; the “cleaved caspase 3” value is given as “upregulation”. Moreover, in the assay with A549 cells [2] (setting [3]), the “expression of Bax” value is “upregulation”, the “expression of cytochrome c” value is reported as “upregulation”, the “expression of p53” value is given as “upregulation” and the “quantity of PARP expressed” value is “decreased with time”. Further, the Bak entry with A549 cells [2] (A549, 36 μg/ml, time dependently) is “upregulated”.

For the origin of these results see article PMC5059921, “Chalepin: isolated from Ruta angustifolia L. Pers induces mitochondrial mediated apoptosis in lung carcinoma cells” (BMC Complementary and Alternative Medicine, 2016).
